In data set [1] the test system is autophagy (LC3B-II, SQSTM1/p62) in MIA PaCa-2 cells. Put plainly: Autophagy inhibition (immunoblot, LC3B-GFP imaging, TEM). The format is cell-based, human. Conditions: western blotting, compared to untreated and Lys05-treated cells. The procedure: LC3B-GFP imaging. Cells in a 96-well plate (5,000 cell per well) were transfected by the autophagy sensor LC3B-GFP (Thermo Fisher) for 12 h. After treated as indicated for 4 h, cells were visualized by a fluorescence microscope (Olympus). The puncta per well were quantified using ImageJ 1.51s.
Western Blot. The cell or tumour samples were lysed with RIPA Buffer (Thermo Fisher). After centrifugation at 4° C. (15 min, 12,000×g), the concentrations of proteins in supernatant and determined by Bradford Protein Assay dye (Bio-Rad). Immunoblotting was performed routinely and were developed using a ChemiDoc™ MP imaging system.
TEM of cells and tumour tissue. MIA PaCa-2 cells in 8-well slide plates (30,000 cell per well, Lab-Tek) were treated as indicated for 48 h. The freshly harvested tumours were cut into 1 mm^3 pieces. Samples were fixed with the 0.1 M cacodylate buffer containing 2.5% glutaraldehyde plus 2% paraformaldehyde, and transferred onto carbon square mesh, followed by observation under Talos L120C TEM.

A further data set has as its system HT29 tumours. Put plainly: HT29 xenograft model. Conditions: mice bearing HT29 tumours.
Another data set concerns HCT116. Kind of data set: MTS cell viability assay. The format is cell-based. As to conditions: Homo sapiens, HCT-116, 48 h; read-out: IC50 values from the 48 h MTS assay (μM) HCT116. The procedure: (§1) Cell line and cell culture. The human pancreatic cancer cell lines (MIA PaCa-2, BXPC3, and PANC-1) were originally purchased from ATCC and were kindly provided by Dr. Shiro Urayama's Lab. HT29, HCT116, H460, MCF7, NIH/3T3, and IMR-90 cell lines were purchased from ATCC. Bone marrow cells were collected from the leg bone marrows of FVB/N mice. All the cells were cultured at 37° C. in a humidified atmosphere of 5% CO2/95% air using the corresponding medium supplemented with 10% fetal bovine serum, […] according to ATCC protocol. All the cell lines have been tested for mycoplasma contamination routinely.
(§2) Cell viability, cell growth and colony formation. Cell viability was assessed by the MTS assay. Briefly, cells in 96-well plates (4,000 cell per well) were treated as indicated, followed by the incubation with MTS regents for 4 h. OD values (490 nm) were determined via a microplate reader. Results were shown as the average cell viability calculated from the formula of [(ODtreat−ODblank)/(ODcontrol−ODblank)×100%]. Drug combination data were analyzed by Combenefit 2.02. In cell growth assay, cells in 6-well plates (50,000 cell per well) were treated as indicated and were counted manually every 24 h. Colony formation assay was also performed on 6-well plates with a starting density of 1,000-2,000 cells per well. After incubated as indicated for 10-20 days, cells were washed with PBS and stained with the solution of crystal violet and methanol for 20 min.

Another data set has as its system MIA PaCa-2 cells. Kind of data set: RNA sequencing, differentially expressed genes. The data set is classed as cell-based, human. As to conditions: 5 μM, 24 h, vs vehicle. The procedure:
RNA-seq. Total RNA was extracted by the RNeasy Mini Kit (Qiagen, Germany) from the treated MIA PaCa-2 cells (5 μM, 24 h). Samples were submitted to the UC Davis Comprehensive Cancer Center's Genomics Shared Resource (GSR) for RNA-Seq analysis. Stranded RNA-Seq libraries were prepared from 100 ng total RNA using the NEBNext Ultra Directional RNA Library Prep Kit (New England BioLabs). Subsequently, libraries were combined for multiplex sequencing on an Illumina HiSeq 4000 System (2×150 bp, paired-end, >20×10^6 reads per sample). The data of normalized genes read counts were analyzed using fold change and t test. The Differentially expressed genes (DEGs) were collected for the signaling pathways enrichment by Funrich software 3.1.3. The gene sets were from MSigDB database (Broad Institute). GSEA was performed using GSEA version 3.0 in KEGG gene sets category online, with the following parameters: n=1,000 permutations, where p-adjust <0.05, and FDR <0.05 were considered significant.

Data set [2] in a line: Nanoparticle characterization of BAQ NPs (DLS, TEM). As to conditions: assembled NPs in water. The format is physicochemical. The method, then: (§3) Preparation and characterization of BAQ ONNs. NPs were prepared through the re-precipitation method. BAQ derivatives in methanol were added dropwise into MilliQ water while stirring for 5 min (volume ratio, 1:10), and then homogenous NPs were obtained after rotary evaporation (40° C., 20 min), followed by the characterization with Zetasizer Nano ZS (Malvern). The TEM samples were prepared by dropping 0.5 mM NPs on carbon square mesh and dried naturally, which were then observed under the Talos L120C TEM (FEI) at an accelerating voltage of 80 kV. To determine the drug content in nanoformulations, the prepared drug-loaded NPs were cut off by centrifugal filter (ultracel-10 kDa, Millipore), and the absorbance of filtrate (diluted with DMSO, 1:10, volume ratio) was measured for calculation of drug concentrations.

Data set [3] relates to three pancreatic cancer cell lines (MIA PaCa-2, BxPC-3, and PANC-1) and two colon cancer cell lines (HT29 and HCT116). Put plainly: 48 h MTS assay on pancreatic and colon cancer cell lines. The data set is classed as cell-based. The procedure:
as §2
In vitro antitumour activity of BAQ derivatives. To systematically investigate the antitumour effects in vitro, three pancreatic cancer cell lines (MIA PaCa-2, BxPC-3, and PANC-1) and two colon cancer cell lines (HT29 and HCT116) were selected for a 48 h MTS assay. […] The improved anticancer activity of BAQ ONNs is attributable to their multiple functions in inducing LMP, lysosomal dysfunction and autophagy inhibition in cancer cells; these effects are considered to be important triggers of apoptosis. To examine the proapoptotic effects of BAQ ONNs, apoptosis signals in MIA PaCa-2 and HT29 cells was subsequently detected. […] Lys05, the control, increased apoptotic signals in a concentration-dependent manner, but its effect at a high concentration close to the IC50 was still milder than those of the low concentrations of BAQ ONNs.

For another data set, the system named is H460. Put plainly: MTS cell viability assay. The data set is classed as cell-based. Conditions: 24 h; read-out: IC50 (μM) in the 24 h treatment H460. The procedure: as §1, §2
Another data set concerns MCF-7. Kind of data set: MTS cell viability assay. The format is cell-based. Conditions: 24 h; read-out: IC50 (μM) in the 24 h treatment MCF-7. The method, then:
as §1, §2

For another data set, the system named is HT29. Kind of data set: MTS cell viability assay. Conditions: read-out: IC50 (μM) in the 24 h treatment HT29. The data set is classed as cell-based. The procedure: as §1, §2
In another data set the test system is MIA PaCa-2. Put plainly: MTS cell viability assay. The data set is classed as cell-based, human. Conditions: read-out: IC50 (μM) in the 24 h treatment MIA PaCa-2. The method, then: as §1, §2
A further data set relates to BXPC-3. Put plainly: MTS cell viability assay. Conditions: 24 h; read-out: IC50 (μM) in the 24 h treatment BXPC-3. The format is cell-based, human. The procedure:
as §1, §2

The test system of the next data set is PANC-1. Put plainly: MTS cell viability assay. The format is cell-based, human. Conditions: 24 h; read-out: IC50 (μM) in the 24 h treatment PANC-1. The method, then:
as §1, §2

Data set [4] has as its system various cancer cell lines. Put plainly: Preliminary MTS screening, 24 h. The format is cell-based. Conditions: 24 h MTS. The method, then: To verify the therapeutic effects of BAQ12-BAQ18, a preliminary screening was conducted using an MTS assay on various cancer cell lines. […] This decrease was due to gradual declines in the detergence and H^+ buffering capacity of compounds. Based on the results above, BAQ12 and BAQ13 were then selected as representatives for construction of BAQ ONNs in the following studies.
as §2

The nature of data set [5]: Drug loading using BAQ13 NPs. The format is physicochemical. The procedure: as §3
Next investigation was whether liposome-like BAQ ONNs can encapsulate additional agents. Upon nanoprecipitation of BAQ13 and various agents, homogeneous NPs with monomodal size distributions spontaneously formed (Table 2 and FIG. 9G).

The test system of a further data set is PCSC tumours. Put plainly: PCSC xenograft model. The data set is classed as in vivo, NRG mice. As to conditions: combination therapy study, every three days. The source says:
In vivo treatment schedule.

The nature of data set [6]: Titration with hydrochloric acid (pH buffering capacity). The format is physicochemical. As to conditions: 1 mM, 0.1 M HCl.
The next data set has as its system Red blood cells. Put plainly: pH-dependent haemolysis test. The data set is classed as cell-based. Conditions: whole pH range, same concentration (50 μM, 4 h).
In another data set the test system is OSC-3 cells. Put plainly: PBC NPs in OSC-3 cells (lysosomes, apoptosis, photodynamic therapy). The data set is classed as cell-based. Conditions: LC3-GFP-RFP imaging and immunoblotting.
The mark [7] stands for this setting: BAQ13 NPs loaded with the drug or dye.

Read-outs that look alike come from different tables or passages of the source.

Take `CO/C1=C\C(C)=C\[C@@H](C)[C@@H](O)[C@@H](C)C/C(C)=C/C=C/[C@H](OC)[C@@H]([C@@H](C)[C@@H](O)[C@H](C)[C@@]2(O)C[C@@H](O)[C@H](C)[C@@H](C(C)C)O2)OC1=O` [bafilomycin A1]: in [1], the “LC3B-II and SQSTM1/p62 protein levels” value is on record as “Such increases were also observed”.
`CCc1c2c(nc3ccc(OC(=O)N4CCC(N5CCCCC5)CC4)cc13)-c1cc3c(c(=O)n1C2)COC(=O)[C@]3(O)CC` [Irinotecan]: the Median Survival in the data set with HT29 tumours (survival analysis in text) and in the data set with HT29 tumours (treatment terminated on the 24th day) was 36 days throughout. In addition, the IC50 in the data set on HCT116 is 17 ± 1 µM.
For the compound `CCCCCCCCCCCCCN(CCNc1ccnc2cc(Cl)ccc12)CCNc1ccnc2cc(Cl)ccc12` [BAQ13], in the data set on MIA PaCa-2 cells, the downregulated genes is 181 and the upregulated genes came to 209. In addition, in the data set with MIA PaCa-2 cells (fold change≥2 and p value≤0.05), the “differentially expressed genes (DEGs)” value is 390. Moreover, the “Zeta Potential (mV)” value in data set [2] is reported as 39.7 ± 1.9 mV. In data set [2] (DLS), the PDI is listed as 0.097 and the “Size (nm)” value is given as 99.1 ± 2.1 nm. Further, in [3], the “effect alone versus combination treatment with Lys05 and MSDH” value is “more effective than combination treatment with Lys05 and MSDH”; the “fold more potent than HCQ” value is 30 fold. Besides, the IC50 with H460 came out at 2.2 ± 0.4 µM. The IC50 in the data set with MCF-7 was found to be 3.7 ± 0.3 µM. For the same compound, in the data set on HT29 (24 h), the IC50 was found to be 3 ± 1.1 µM. In the data set on MIA PaCa-2 (24 h), the IC50 came out at 4.2 ± 1 µM. The IC50 in the data set with BXPC-3 is 3.1 ± 0.2 µM. For the same compound, the half-inhibitory concentration (IC50) in the data set with PANC-1 is 4.3 ± 1 µM. Also, in data set [4], the “fold higher potency than HCQ” value is listed as about 20 fold, the “fold higher potency than Lys05” value is listed as about 3 fold and the “fold higher potency than MSDH” value was about 10 fold.
With `CC(=O)c1cc2c(o1)C(=O)c1ccccc1C2=O` [Napabucasin], in data set [5] (setting [7]), the PDI was 0.101 and the Size/diameter is listed as 110 nm. Besides, in [5] (drug or dye loaded in BAQ13 NPs), the Encapsulation efficiency is recorded as 85%. The Drug-loading content in [5] (drug or dye loaded in BAQ13 NPs, mass ratio) is listed as 20%. Moreover, the tumour growth entry in the data set on PCSC tumours is recorded as “no antitumour effect”.
Turning to `CCCCCCCCCCCCNC(=O)[C@@H](N)COC.Cl` [MSDH, O-Methyl-Serine-Dodecylamide Hydrochloride], the IC50 in the data set on HT29 (Homo sapiens, HT-29, 24 h) amounted to 30.3 ± 4.8 µM; with MIA PaCa-2 (Homo sapiens, MIA PaCa-2, 24 h), 55.5 ± 7.1 µM. Besides, the “pH plateau upon titration with HCl” value in data set [6] worked out at 6.2. The “haemolytic response to pH” value in the data set with Red blood cells is “only a weak haemolytic response to pH”.
Take pheophorbide a: the induction of autophagy entry in the data set with OSC-3 cells was “induced autophagy”.

Values taken from patent US20230348419A1, “BIAMINOQUINOLINES AND NANOFORMULATIONS FOR CANCER TREATMENT” (The Regents of the University of California, priority 2019, published 2023).
